Test results taken from US4912120A, “3,5-substituted 4,5-dihydroisoxazoles as transglutaminase inhibitors” (Syntex (U.S.A.) Inc., priority 1987, dated 1990).

How the values were obtained:
[1] = system: blackhead-like lesions and whitehead-like lesions (spontaneous acne-like condition); experiment: Mexican Hairless Dog Assays; assay type: in vivo, Mexican hairless beagle dog; details: two dogs
Excerpt: To determine the utility of the compounds of Formula (I) for treating acne in mammals, one can use the procedures described by DeYoung, et al. Another model examined is the Mexican hairless beagle dog, a procedure for which is set forth in Example 10.
Gel vehicle alone was not effective.

psoriatic plaque = experiment: Psoriatic plaque chamber test (Example 13); assay type: in vivo, humans; details: 1% w/w in propylene glycol/Carbopol 940 gel, 0.05 ml in chamber on psoriatic plaque, five subjects, applied days 1-16, readings to day 23
Description: To determine the utility of the compounds of Formula (I) for treating psoriasis in humans, the procedure of Example 13 can be followed.
5-(N-benzyloxycarbonyl-L-phenylalaninamidomethyl)-3-bromo-4,5-dihydroisoxazole was levigated into a gel vehicle (see Example 14) to afford a concentration of 1% w/w. The gel vehicle contained primarily propylene glycol which was gelled with Carbopol 940.
0.05 ml of the gel containing active ingredient was filled into a 1 mm deep teflon chamber (Durhing chamber) which was then applied to the psoriatic plaque of each of the five subjects. The plaque was then covered with Scanpor® adhesive tape. The gel was applied on days 1, 3, 5, 8, 10, 12 and 16. Each time, fresh gel, chamber, and tape were used. Readings were taken on Days 5, 10, 12, 16 and 23 (one week off therapy). The presence or absence of a normal appearing epidermis was evaluated using a scale of 0 to 2.

[2] = Toxicity of the Compounds of Formula I; assay type: in vivo; details: 10 mg/Kg intraperitoneally daily for 14 days, 5 male and 5 female CDI mice per group
Description: Three groups, each composed of 5 male and 5 female CDI mice, were injected intraperitoneally with 10 mg/Kg of 5-(N-benzyloxycarbonyl-L-phenylalaninamidomethyl)-3-bromo-4,5-dihydroisoxazole or 5-(N-benzyloxycarbonyl-L-para-tyrosinamidomethyl)-3-chloro-4,5-dihydroisoxazole daily for 14 days.

transglutaminase = details: prior-art inhibitors; cited from earlier work
[3] = 2.5% in gel (40% dimethylisosorbide, 55% ethanol, 2.5% carbomer 940)
[4] = 2.5% in gel (2.5% Klucel, 10% diisopropyl adipate, 80% ethanol, 5% propylene glycol), once daily, 14 days

## O=C(N[C@@H](Cc1ccc(O)cc1)C(=O)NCC1CC(Br)=NO1)OCc1ccccc1 (mixture of isomers) [5-(N-benzyloxycarbonyl-L-paratyrosinamidomethyl)-3-bromo-4,5-dihydroisoxazole]
[1]; [3]
  clearing of lesions: positive results

## O=C(N[C@@H](Cc1ccccc1)C(=O)NCC1CC(Br)=NO1)OCc1ccccc1 (mixture of isomers) [5-(N-benzyloxycarbonyl-L-phenylalaninamidomethyl)-3-bromo-4,5-dihydroisoxazole]
Psoriatic plaque
  activity against psoriasis (presence or absence of normal appearing epidermis, scale of 0 to 2): shows activity against psoriasis
[1]; [4]
  clearing of lesions: clearing of the majority of blackhead-like lesions and many whitehead-like lesions
[1]; [3]
  clearing of lesions: positive results
[2]
  toxic effects: No toxic effects

## O=C(N[C@@H](Cc1ccccc1)C(=O)NCC1CC(Cl)=NO1)OCc1ccccc1 (mixture of isomers) [5-(N-benzyloxycarbonyl-L-phenylalaninamidomethyl)-3-chloro-4,5-dihydroisoxazole]
[1]; [4]
  clearing of lesions: good clearing
[1]; [3]
  clearing of lesions: positive results

## O=C(N[C@@H](Cc1ccc(O)cc1)C(=O)NCC1CC(Cl)=NO1)OCc1ccccc1 (stereo partly drawn) [5-(N-benzyloxycarbonyl-L-para-tyrosinamidomethyl)-3-chloro-4,5-dihydroisoxazole]
[2]
  toxic effects: No toxic effects

## NCCSSCCN [cystamine]
transglutaminase
  effective concentration: greater than 10^-3 M
  specificity for transglutaminases: lacks specificity for transglutaminases
